Data reported in patent US10597388B2, “Pyridazinone herbicides” (FMC CORPORATION, priority 2014, dated 2020).

Legend:
Format in all cases: in vivo
[1] = system: foxtail, giant (giant foxtail, Setaria faberii); experiment: Test A greenhouse herbicide test, pre- and postemergence
Outline: (§1)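 Seeds in loam–sand blend received a preemergence directed soil spray; plants at 2–10 cm, one- to two-leaf stage, received postemergence sprays. Compounds in a non-phytotoxic solvent with surfactant. After about 10 d in a greenhouse, injury rated visually versus untreated controls on a 0–100 scale (100 = complete control).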

[2] = system: ragweed (common ragweed, Ambrosia elatior); experiment: as above
Outline: as §1

kochia (Kochia scoparia) = experiment: as above
Outline: as §1

[3] = system: wheat (Triticum aestivum); experiment: as above; settings: Postemergence; for Plant response rating, Wheat: 125 g ai/ha, 0 to 100 scale where 0 is no effect and 100 is complete control; for Wheat plant response rating: 500 g ai/ha, 0 to 100 scale, 0 is no effect, 100 is complete control
Outline: as §1

[4] = system: pigweed (Amaranthus retroflexus); experiment: as above
Outline: as §1

corn (Zea mays) = experiment: Test C greenhouse herbicide test, pre- and postemergence
Text: (§2) Seeds of plant species selected from blackgrass (Alopecurus myosuroides), ryegrass, Italian (Italian ryegrass, Lolium multiflorum), wheat (winter wheat, Triticum aestivum), galium (catchweed bedstraw, Galium aparine), corn (Zea mays), large crabgrass, large (large crabgrass, Digitaria sanguinalis), foxtail, giant (giant foxtail, Setaria faberii), johnsongrass (Sorghum halepense), lambsquarters (Chenopodium album), morningglory (Ipomoea coccinea), nutsedge, yellow (yellow nutsedge, Cyperus esculentus), pigweed (Amaranthus retroflexus), ragweed (common ragweed, Ambrosia elatior), soybean (Glycine max), barnyardgrass (Echinochloa crus-galli), oilseed rape (Brassica napus), waterhemp (common waterhemp, Amaranthus rudis), and velvetleaf (Abutilon theophrasti) were planted into a blend of loam soil and sand and treated preemergence with test chemicals formulated in a non-phytotoxic solvent mixture which included a surfactant.
(§3) At the same time, plants selected from these crop and weed species and also chickweed (common chickweed, Stellaria media), kochia (Kochia scoparia), and oat, wild (wild oat, Avena fatua), were planted in pots containing Redi-Earth® planting medium (Scotts Company, 14111 Scottslawn Road, Marysville, Ohio 43041) comprising spaghnum peat moss, vermiculite, wetting agent and starter nutrients and treated with postemergence applications of test chemicals formulated in the same manner. Plants ranged in height from 2 to 18 cm (1- to 4-leaf stage) for postemergence treatments. Treated plants and controls were maintained in a greenhouse for 13 to 15 d, after which time all species were compared to controls and visually evaluated. Plant response ratings, summarized in Table C, are based on a scale of 0 to 100 where 0 is no effect and 100 is complete control. A dash (-) response means no test result.

[5] = system: ryegrass, Italian (Italian ryegrass, Lolium multiflorum); experiment: as above
Text: as §2, §3

[6] = system: morningglory (Ipomoea coccinea); experiment: as above
Text: as §2, §3

[7] = system: blackgrass (Alopecurus myosuroides); experiment: as above
Text: as §2, §3

[8] = system: pigweed (Amaranthus retroflexus); experiment: as above
Text: as §2, §3

[9] = system: velvetleaf (Abutilon theophrasti); experiment: as above
Text: as §2, §3

[10] = Postemergence, 125 g ai/ha, 0 to 100 scale where 0 is no effect and 100 is complete control
[11] = Postemergence, 500 g ai/ha, 0 to 100 scale, 0 is no effect, 100 is complete control
[12] = Preemergence, 125 g ai/ha, 0 to 100 scale where 0 is no effect and 100 is complete control
[13] = Preemergence, 500 g ai/ha, 0 to 100 scale, 0 no effect, 100 complete control
[14] = Postemergence, 31 g ai/ha, 0 to 100 scale (0 no effect, 100 complete control)
[15] = Postemergence, 125 g ai/ha, scale 0 to 100, 0 is no effect, 100 is complete control
[16] = Postemergence, 250 g ai/ha, scale 0 to 100, 0 no effect, 100 complete control, 13 to 15 d
[17] = Preemergence, 31 g ai/ha, scale 0 to 100, 0 is no effect, 100 is complete control
[18] = Preemergence, 62 g ai/ha, scale 0 to 100, 0 is no effect, 100 is complete control
[19] = Preemergence, 125 g ai/ha, scale 0 to 100, 0 is no effect, 100 is complete control
[20] = Preemergence, 250 g ai/ha, scale 0 to 100, 0 no effect, 100 complete control
[21] = postemergence, 62 g ai/ha, scale 0 to 100, 0 no effect, 100 complete control
[22] = Preemergence, 500 g ai/ha, 0 to 100 scale where 0 is no effect and 100 is complete control

SMILES: Cc1ccc2sc(C)c(-c3c(OC(=O)OC(C)C)c(C)nn(C)c3=O)c2c1 [Compound 66]
- Plant response rating, Foxtail, Giant [1, 10]: 70
- Foxtail, Giant plant response rating [1, 11]: 90
- Foxtail, Giant plant response rating [1, 12]: 60
- Plant response rating, Foxtail, Giant [1, 13]: 90
- Plant response rating, Ragweed [2, 10]: 70
- Ragweed plant response rating [2, 11]: 90
- Ragweed plant response rating [2, 12]: 80
- Plant response rating, Ragweed [2, 13]: 90
- Plant response rating, Kochia (kochia (Kochia scoparia); [10]): 90
- Kochia plant response rating (kochia (Kochia scoparia); [11]): 90
- Kochia plant response rating (kochia (Kochia scoparia); [12]): 60
- Plant response rating, Kochia (kochia (Kochia scoparia); [13]): 70
- Plant response rating, Wheat [3]: 0
- Wheat plant response rating [3]: 0
- Plant response rating, Pigweed [4, 10]: 80
- Pigweed plant response rating [4, 11]: 90
- Pigweed plant response rating [4, 12]: 100
- Plant response rating, Pigweed [4, 13]: 100
- Corn plant response rating (corn (Zea mays); [14]): 0
- Plant response rating, Corn (corn (Zea mays); [15]): 5
- Plant response rating, Corn (corn (Zea mays); [16]): 25
- Plant response rating, Corn (corn (Zea mays); [17]): 0
- Plant response rating, Corn (corn (Zea mays); [18]): 0
- Plant response rating, Corn (corn (Zea mays); [19]): 0
- Corn plant response rating (corn (Zea mays); [20]): 0
- Corn plant response rating (corn (Zea mays); [21]): 0
- Ryegrass, Italian plant response rating [5, 14]: 60
- Plant response rating, Ryegrass, Italian [5, 15]: 85
- Plant response rating, Ryegrass, Italian [5, 16]: 85
- Plant response rating, Ryegrass, Italian [5, 17]: 55
- Plant response rating, Ryegrass, Italian [5, 18]: 50
- Plant response rating, Ryegrass, Italian [5, 19]: 80
- Ryegrass, Italian plant response rating [5, 20]: 90
- Ryegrass, Italian plant response rating [5, 21]: 80
- Morningglory plant response rating [6, 14]: 90
- Plant response rating, Morningglory [6, 15]: 100
- Plant response rating, Morningglory [6, 16]: 100
- Plant response rating, Morningglory [6, 17]: 80
- Plant response rating, Morningglory [6, 18]: 85
- Plant response rating, Morningglory [6, 19]: 80
- Morningglory plant response rating [6, 20]: 90
- Morningglory plant response rating [6, 21]: 95
- Blackgrass plant response rating [7, 14]: 10
- Plant response rating, Blackgrass [7, 15]: 40
- Plant response rating, Blackgrass [7, 16]: 60
- Plant response rating, Blackgrass [7, 17]: 10
- Plant response rating, Blackgrass [7, 18]: 30
- Plant response rating, Blackgrass [7, 19]: 35
- Blackgrass plant response rating [7, 20]: 30
- Blackgrass plant response rating [7, 21]: 15
- Pigweed plant response rating [8, 14]: 95
- Plant response rating, Pigweed [8, 15]: 100
- Plant response rating, Pigweed [8, 16]: 100
- Plant response rating, Pigweed [8, 17]: 100
- Plant response rating, Pigweed [8, 18]: 100
- Plant response rating, Pigweed [8, 19]: 100
- Pigweed plant response rating [8, 20]: 100
- Pigweed plant response rating [8, 21]: 98
- Velvetleaf plant response rating [9, 14]: 55
- Plant response rating, Velvetleaf [9, 15]: 85
- Plant response rating, Velvetleaf [9, 16]: 95
- Plant response rating, Velvetleaf [9, 17]: 15
- Plant response rating, Velvetleaf [9, 18]: 60
- Plant response rating, Velvetleaf [9, 19]: 70
- Velvetleaf plant response rating [9, 20]: 85
- Velvetleaf plant response rating [9, 21]: 75

SMILES: Cc1ccc2ccccc2c1-c1c(OC(=O)OC(C)C)c(C)nn(C)c1=O [Compound 72]
- Plant response rating, Foxtail, Giant [1, 10]: 30
- Foxtail, Giant plant response rating [1, 11]: 90
- Foxtail, Giant plant response rating [1, 12]: 70
- Plant response rating, Foxtail, Giant [1, 22]: 100
- Plant response rating, Ragweed [2, 10]: 70
- Ragweed plant response rating [2, 11]: 90
- Ragweed plant response rating [2, 12]: 90
- Plant response rating, Ragweed [2, 22]: 90
- Plant response rating, Kochia (kochia (Kochia scoparia); [10]): 60
- Kochia plant response rating (kochia (Kochia scoparia); [11]): 90
- Kochia plant response rating (kochia (Kochia scoparia); [12]): 50
- Plant response rating, Kochia (kochia (Kochia scoparia); [22]): 100
- Plant response rating, Wheat [3]: 20
- Wheat plant response rating [3]: 70
- Plant response rating, Pigweed [4, 10]: 90
- Pigweed plant response rating [4, 11]: 90
- Pigweed plant response rating [4, 12]: 100
- Plant response rating, Pigweed [4, 22]: 100
- Corn plant response rating (corn (Zea mays); [14]): 5
- Plant response rating, Corn (corn (Zea mays); [15]): 20
- Plant response rating, Corn (corn (Zea mays); [16]): 25
- Plant response rating, Corn (corn (Zea mays); [17]): 0
- Plant response rating, Corn (corn (Zea mays); [18]): 0
- Plant response rating, Corn (corn (Zea mays); [19]): 0
- Corn plant response rating (corn (Zea mays); [20]): 20
- Corn plant response rating (corn (Zea mays); [21]): 10
- Ryegrass, Italian plant response rating [5, 14]: 85
- Plant response rating, Ryegrass, Italian [5, 15]: 90
- Plant response rating, Ryegrass, Italian [5, 16]: 90
- Plant response rating, Ryegrass, Italian [5, 17]: 90
- Plant response rating, Ryegrass, Italian [5, 18]: 90
- Plant response rating, Ryegrass, Italian [5, 19]: 90
- Ryegrass, Italian plant response rating [5, 20]: 90
- Ryegrass, Italian plant response rating [5, 21]: 90
- Morningglory plant response rating [6, 14]: 80
- Plant response rating, Morningglory [6, 15]: 95
- Plant response rating, Morningglory [6, 16]: 100
- Plant response rating, Morningglory [6, 17]: 75
- Plant response rating, Morningglory [6, 18]: 85
- Plant response rating, Morningglory [6, 19]: 90
- Morningglory plant response rating [6, 20]: 90
- Morningglory plant response rating [6, 21]: 90
- Blackgrass plant response rating [7, 14]: 60
- Plant response rating, Blackgrass [7, 15]: 80
- Plant response rating, Blackgrass [7, 16]: 90
- Plant response rating, Blackgrass [7, 17]: 40
- Plant response rating, Blackgrass [7, 18]: 50
- Plant response rating, Blackgrass [7, 19]: 70
- Blackgrass plant response rating [7, 20]: 90
- Blackgrass plant response rating [7, 21]: 70
- Pigweed plant response rating [8, 14]: 85
- Plant response rating, Pigweed [8, 15]: 95
- Plant response rating, Pigweed [8, 16]: 98
- Plant response rating, Pigweed [8, 17]: 90
- Plant response rating, Pigweed [8, 18]: 98
- Plant response rating, Pigweed [8, 19]: 98
- Pigweed plant response rating [8, 20]: 100
- Pigweed plant response rating [8, 21]: 90
- Velvetleaf plant response rating [9, 14]: 45
- Plant response rating, Velvetleaf [9, 15]: 85
- Plant response rating, Velvetleaf [9, 16]: 95
- Plant response rating, Velvetleaf [9, 17]: 30
- Plant response rating, Velvetleaf [9, 18]: 45
- Plant response rating, Velvetleaf [9, 19]: 80
- Velvetleaf plant response rating [9, 20]: 85
- Velvetleaf plant response rating [9, 21]: 85
